Test results reported in patent US5614554A, “Reverse transcriptase inhibitors and antiviral agents” (Nippon Flour Mills Co., Ltd., priority 1992, dated 1997).
Entries after “also recorded” stand apart in the source; their conditions may differ. Read-outs that look alike come from different tables or passages of the source.

Key:
[1] = tested on: mice leukemia cell L1210; experiment: Influence on the proliferation of mice leukemia cell L1210; type: cell-based; details: 250 μg/ml, cultured for four days, compared with compound-free control
Method: To the culture of mice leukemia cell L1210, sodium L-tyrosine sulfate was added at the concentration of 250 μg/ml and then the mixture was cultured for four days.

[2] = target: reverse transcriptase derived from AMV; experiment: Reverse transcriptase inhibitory effect, AMV enzyme; type: biochemical, AMV (avian myeloblastosis virus); details: poly(A).oligo(dT)12-18, 37° C., 10 minutes
Method: (§1) 20 μl of reaction solution was prepared so as to comprise 50 mM of Tris-hydrochloric acid buffer solution (pH 8.5), 40 mM of KCl, 6 mM of MgCl2, 1 mM of dithiothreitol, 50 μg/ml of poly(A). oligo (dT)12-18, [α^-32 P] deoxythymidine triphosphate, reverse transcriptase and sodium L-tyrosine sulfate.
(§2) After the reaction solution was incubated at 37° C. for 10 minutes, the reaction solution was deposited on DE 81 filter (available from Whatman). The filter was then washed thoroughly with 5% aqueous solution of Na2 HPO4 and subsequently with water, ethanol and diethyl ether. Radiation of the filter was examined by scintillation counter and then the concentration which inhibits 50% of reverse transcriptase activity (IC50) was calculated.
(§3) The reverse transcriptases used in this test were those derived from AMV (avian myeloblastosis virus) and HIV.

[3] = Solvent solubility; type: physicochemical; details: sulfate
[4] = tested on: male mice of ICR; experiment: Acute toxicity on mice; type: in vivo; details: intraperitoneally, 500 mg/kg, male ICR mice at age of 4 weeks
Method: Sodium L-tyrosine sulfate was intraperitoneally injected to male mice of ICR at age of 4 weeks at the dose of 500 mg/kg to examine an acute toxicity.

[5] = target: T1, reverse transcriptase derived from HIV (Human immunodeficiency virus type 1 group M subtype B, UniProt P04585); experiment: Reverse transcriptase inhibitory effect, HIV enzyme; type: biochemical
T1 construct: the reverse transcriptase derived from HIV
Method: as §1, §2, §3

[6] = Influence on the proliferation of T cells (non-infected MT-4 cells); type: cell-based; details: human, read-out: Survival rate
Method: (§4) In this test, there were used human T cell strain MT-4 cells (Gann monogr., Vol. 28, pp219-228 (1982)), which was tranformed with HTLV-1 which is an etiogenic virus of adult T cell leukemia, and HTLV-IIIB which is one of HIV strains. This test was performed in accordance with the method of Pauwels et al. (Pauwels et al., J. Virol. Methods, Vol. 20, pp309-21 (1988)).
(§5) Immediately after MT-4 cells were infected with HTLV-IIIB [MOI (multiplicity of infection =the number of inoculated virus/the number of cells): 0.01], sodium L-tyrosine sulfate and the HTLV-IIB-infected MT-4 cells were added to a microtiter plate having 96 wells at a variety of concentrations of sodium L-tyrosine sulfate and the concentration of 2.5×10^4 cells/well, respectively. These samples were cultivated at 37° C. for five days with carbon dioxide incubator. According to MTT method, the number of survival cells was then determined by measuring an absorbance to calculate an efficiency.
As in Test Example 1, there was determined the influence of sodium L-tyrosine sulfate on the proliferation of HTLV-IIIB-non-infected MT-4 cells and the survival rate of the cells was calculated.

[7] = tested on: HTLV-IIIB; experiment: Inhibitory effect on HIV-induced cell damage in infected MT-4 cells (MTT method); type: cell-based; details: Human immunodeficiency virus 1, IIIB, MT4, 120 h, read-out: Efficiency
Method: as §4, §5

In the case of `N[C@@H](Cc1ccc(OS(=O)(=O)[O-])cc1)C(=O)O.[Na+]`, the “Inhibitory effect on the proliferation of L1210” value [1] is reported as “hardly any inhibitory effects on the proliferation”, the “IC50 (concentration which inhibits 50% of reverse transcriptase activity)” value [2] is reported as 230 µg/mL and the Solvent solubility ([3]; product of Synthesis Example 1 before purification) is reported as “soluble in water, methanol and dimethyl sulfoxide; also recorded: insoluble in acetone, ethylacetate, hexane and chloroform”. The Solvent solubility ([3]; product of Synthesis Example 1 purified by Sephadex LH-20) was “soluble in water, methanol and dimethyl sulfoxide; also recorded: insoluble in acetone, ethylacetate, hexane and chloroform” and the Acute toxicity [4] was “not observed any remarkable toxicity”.

In the case of `N[C@@H](Cc1ccc(OS(=O)(=O)[O-])cc1)C(=O)O.[Na+]` [sulfate], the IC50 [5] is reported as 127 µM, the viability at 120 h ([6]; 0.32 μg/ml) is reported as 98% and the viability at 120 h ([6]; 1.6 μg/ml) is reported as 97%. The viability at 120 h ([6]; 8 μg/ml) was 110%, the viability at 120 h ([6]; 40 μg/ml) was 94% and the viability at 120 h ([6]; 200 μg/ml) was 120%. The viability at 120 h ([6]; 1000 μg/ml) was 112%, the inhibition at 0.32 µg/mL [7] was -5% and the inhibition at 1.6 µg/mL [7] was 61%. The inhibition at 8 µg/mL [7] was 116%, the inhibition at 40 µg/mL [7] was 91% and the inhibition at 200 µg/mL [7] was 124%. The inhibition at 1000 µg/mL [7] was 106%.
